# Assay results reported in patent US9884043B2, “RORgammaT inhibitors” (Merck Sharp & Dohme Corp., priority 2011, dated 2018).
# pIC50: −log10 of the molar value.
# Target: T1, HIS-tagged RORγ-LBD (Homo sapiens, UniProt P51449)
# T1 construct: HIS-tagged RORγ-LBD was recombinantly expressed in SF9 cells using a baculovirus expression system; made in house; host or cells: SF9 cells, baculovirus; crude lysate used
# T1 sequence (P51449 269-508 limits assumed): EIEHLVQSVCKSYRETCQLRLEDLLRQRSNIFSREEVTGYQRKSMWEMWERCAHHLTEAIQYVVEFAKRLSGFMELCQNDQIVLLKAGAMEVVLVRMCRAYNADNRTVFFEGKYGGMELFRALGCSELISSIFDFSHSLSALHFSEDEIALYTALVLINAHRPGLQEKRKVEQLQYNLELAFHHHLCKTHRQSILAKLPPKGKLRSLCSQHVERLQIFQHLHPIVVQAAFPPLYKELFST
# Assay: TR-FRET assay (Protocol C), purified RORγ-LBD / biotinylated SRC1 LXXLL peptide
# Format: biochemical
# Conditions: purified RORγ-LBD 3 nM, SRC1 peptide 100 nM, overnight at 4° C.
# Source text: Activation of RORgammaT activity can be measured using e.g. biochemical TR-FRET assay. In such an assay, interaction of cofactor-derived peptides with human RORgammaT-Ligand Binding Domain (LBD) can be measured. The TR-FRET technique is a sensitive biochemical proximity assay that will give information concerning the interaction of a ligand with the LBD, in the presence of cofactor derived peptides (Zhou et al., Methods 25:54-61, 2001).
# To identify novel antagonists of RORgammaT, an assay was developed which employs the interaction of RORgammaT with its co-activator peptide SRC1_2. This peptide mimics the recruitment of co-activators to RORgammaT through its interaction with the LXXLL (SEQ ID NO:2) (eg NR box) motifs (Xie et al., J. Immunol. 175: 3800-09, 2005; Kurebayashi et al., Biochem. Biophys. Res. Commun. 315: 919-27, 2004; Jin et al., Mol. Endocrinology 24:923-29, 2010). The assay was run following three slightly different protocols, i.e. Protocol A, Protocol B, and Protocol C, which are described below.
# TR-Fret Assay (Protocol C)
# HIS-tagged RORγ-LBD protein was expressed in SF9 cells using a baculovirus expression system. The RORγ-LBD protein was purified by glutathione sepharose chromatography. Separately, SF9 cells not expressing any recombinant protein were lysed and the lysate was added to the purified RORγ-LBD at 0.25 μl lysate (from 10,000 SF9 cells)/nM purified protein. The mixture was then diluted in assay buffer (50 mM Tris pH 7.0, 50 mM KCl, 1 mM EDTA, 0.1 mM DTT) to obtain RORγ-LBD final concentration of 3 nM in 384-well assay plate.
# Compounds to be tested were injected to the assay plate using Acoustic Droplet Ejection technology by Echo 550 liquid handler (Labcyte, Calif.). A stock of biotinylated-LXXLL (SEQ ID NO:2) peptide from coactivator SRC1 (Biotin-[…]) (SEQ ID NO: 1) was prepared in assay buffer and added to each well (100 nM final concentration). A solution of Europium tagged anti-HIS antibody (1.25 nM final concentration) and APC conjugated streptavidin (8 nM final concentration) were also added to each well.
# The final assay mixture was incubated for overnight at 4° C., and the fluorescence signal was measured on an Envision plate reader: (Excitation filter=340 nm; APC emission=665 nm; Europium emission=615 nm; dichroic mirror=D400/D630; delay time=100 μs, integration time=200 μs). IC50 values for test compounds were calculated from the quotient of the fluorescence signal at 665 nm divided by the fluorescence signal at 615 nm.
row,pIC50,SMILES
1,> 7.30,"O=C(O)c1ccc(-c2nn(C(=O)c3c(Cl)cccc3C(F)(F)F)c3cc(C(=O)N4CCCC4)ccc23)cc1 [Example 25V, 4-(1-(2-chloro-6-(trifluoromethyl)benzoyl)-6-(pyrrolidine-1-carbonyl)-1H-indazol-3-yl)benzoic acid]"
2,> 7.30,"O=C(O)c1ccc(-c2nn(C(=O)c3c(Cl)cccc3C(F)(F)F)c3cc(C(=O)N4CCC4)ccc23)cc1 [Example 25W, 4-(6-(azetidine-1-carbonyl)-1-(2-chloro-6-(trifluoromethyl)benzoyl)-1H-indazol-3-yl)benzoic acid]"
3,> 7.30,"O=C(O)c1ccc(-c2nn(C(=O)c3c(Cl)cccc3C(F)(F)F)c3ccccc23)c(Cl)c1 [Example 24AS, 3-chloro-4-(1-(2-chloro-6-(trifluoromethyl)-benzoyl)-1H-indazol-3-yl)benzoic acid]"
4,6.30 to 7.30,"COCc1ccc2c(-c3ccc(C(=O)O)cc3)nn(C(=O)c3c(Cl)cccc3C(F)(F)F)c2c1 [Example 24BG, 4-(1-(2-chloro-6-(trifluoromethyl)-benzoyl)-6-(methoxymethyl)-1H-indazol-3-yl)benzoic acid]"
5,< 5.00,"O=C(O)c1cc(-c2nn(C(=O)c3c(Cl)cccc3C(F)(F)F)c3cccnc23)ccc1O [Example 24AL, 5-(1-(2-chloro-6-(trifluoromethyl)-benzoyl)-1H-pyrazolo[4,3-b]pyridin-3-yl)-2-hydroxybenzoic acid]"
6,6.30 to 7.30,"COc1cccc(F)c1C(=O)n1nc(-c2ccc(C(=O)O)cc2)c2cccc(F)c21 [Example 24AV, 4-(7-fluoro-1-(2-fluoro-6-methoxybenzoyl)-1H-indazol-3-yl)benzoic acid]"
7,> 7.30,"O=C(O)c1ccc(-c2nn(C(=O)c3c(Cl)cccc3C(F)(F)F)c3cc(C(=O)N4CC(F)C4)ccc23)cc1 [Example 25T, 4-(1-(2-chloro-6-(trifluoromethyl)benzoyl)-6-(3-fluoroazetidine-1-carbonyl)-1H-indazol-3-yl)benzoic acid]"
8,> 7.30,"COCCCNC(=O)c1ccc2c(-c3ccc(C(=O)O)cc3F)nn(C(=O)c3c(Cl)cccc3C(F)(F)F)c2c1 [Example 25N, 4-(1-(2-chloro-6-(trifluoromethyl)benzoyl)-6-(3-methoxypropyl-carbamoyl)-1H-indazol-3-yl)-3-fluorobenzoic acid]"
9,6.30 to 7.30,"COc1cccc(F)c1C(=O)n1nc(-c2ccc(C(=O)O)cc2F)c2cccc(F)c21 [Example 24AW, 3-fluoro-4-(7-fluoro-1-(2-fluoro-6-methoxybenzoyl)-1H-indazol-3-yl)benzoic acid]"
10,> 7.30,"COc1cccc(F)c1C(=O)n1nc(-c2ccc(C(=O)O)cc2F)c2ccccc21 [Example 24AU, sodium 3-fluoro-4-(1-(2-fluoro-6-methoxybenzoyl)-1H-indazol-3-yl)benzoate]"
11,> 7.30,"O=C(O)c1c(F)cc(-c2nn(C(=O)c3c(Cl)cccc3C(F)(F)F)c3cccc(F)c23)c(F)c1O [Example 26G, 4-(1-(2-chloro-6-(trifluoromethyl)benzoyl)-4-fluoro-1H-indazol-3-yl)-3,6-difluoro-2-hydroxybenzoic acid]"
12,> 7.30,"COCCN(C)C(=O)c1ccc2c(-c3ccc(C(=O)O)cc3F)nn(C(=O)c3c(Cl)cccc3C(F)(F)F)c2c1 [Example 25S, 4-(1-(2-chloro-6-(trifluoromethyl)benzoyl)-6-((2-methoxyethyl) (methyl)carbamoyl)-1H-indazol-3-yl)-3-fluorobenzoic acid]"
13,> 7.30,"O=C(O)c1ccc(-c2nn(C(=O)c3c(Cl)cccc3C(F)(F)F)c3cc(C(=O)N4CC(F)(F)C4)ccc23)cc1 [Example 25U, 4-(1-(2-chloro-6-(trifluoromethyl)benzoyl)-6-(3,3-difluoroazetidine-1-carbonyl)-1H-indazol-3-yl)benzoic acid]"
14,> 7.30,"O=C(O)c1cc(F)c(-c2nn(C(=O)c3c(Cl)cccc3C(F)(F)F)c3cccc(F)c23)cc1O [Example 26F, 4-(1-(2-chloro-6-(trifluoromethyl)benzoyl)-4-fluoro-1H-indazol-3-yl)-5-fluoro-2-hydroxybenzoic acid]"
